From ChEMBL document CHEMBL4806968, “Hipk inhibitors and methods of use thereof” (2020)

Tests used:
[1] = target: T1, Discoidin domain-containing receptor 2 (Homo sapiens) (UniProt Q16832); assay: Inhibition of DDR2 (unknown origin) at 0.5 uM relative to control
T1 sequence (whole entry): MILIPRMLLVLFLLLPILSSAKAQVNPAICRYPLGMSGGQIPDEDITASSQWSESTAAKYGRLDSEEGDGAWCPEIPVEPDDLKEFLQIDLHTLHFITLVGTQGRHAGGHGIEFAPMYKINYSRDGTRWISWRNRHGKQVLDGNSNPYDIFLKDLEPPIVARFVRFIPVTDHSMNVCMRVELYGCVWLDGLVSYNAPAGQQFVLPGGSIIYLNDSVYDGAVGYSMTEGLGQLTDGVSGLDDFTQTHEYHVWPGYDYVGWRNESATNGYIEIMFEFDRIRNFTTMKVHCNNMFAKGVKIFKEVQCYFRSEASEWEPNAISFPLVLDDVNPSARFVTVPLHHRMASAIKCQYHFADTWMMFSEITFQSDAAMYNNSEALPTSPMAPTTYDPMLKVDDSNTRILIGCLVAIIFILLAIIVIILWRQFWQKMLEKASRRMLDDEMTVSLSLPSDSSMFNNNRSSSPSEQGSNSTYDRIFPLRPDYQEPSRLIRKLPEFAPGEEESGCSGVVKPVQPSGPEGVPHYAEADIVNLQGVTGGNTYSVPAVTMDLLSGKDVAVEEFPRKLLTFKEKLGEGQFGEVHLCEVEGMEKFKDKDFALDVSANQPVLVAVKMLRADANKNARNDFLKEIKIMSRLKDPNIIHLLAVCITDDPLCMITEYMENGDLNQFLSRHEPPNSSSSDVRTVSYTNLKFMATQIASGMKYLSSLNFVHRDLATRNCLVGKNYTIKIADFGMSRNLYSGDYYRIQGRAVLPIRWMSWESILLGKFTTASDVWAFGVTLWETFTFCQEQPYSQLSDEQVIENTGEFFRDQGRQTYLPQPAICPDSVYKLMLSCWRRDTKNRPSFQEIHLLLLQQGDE

[2] = target: T2, Ephrin type-A receptor 8 (Homo sapiens) (UniProt P29322); assay: Inhibition of EPH-A8 (unknown origin) at 0.5 uM relative to control
T2 sequence (whole entry): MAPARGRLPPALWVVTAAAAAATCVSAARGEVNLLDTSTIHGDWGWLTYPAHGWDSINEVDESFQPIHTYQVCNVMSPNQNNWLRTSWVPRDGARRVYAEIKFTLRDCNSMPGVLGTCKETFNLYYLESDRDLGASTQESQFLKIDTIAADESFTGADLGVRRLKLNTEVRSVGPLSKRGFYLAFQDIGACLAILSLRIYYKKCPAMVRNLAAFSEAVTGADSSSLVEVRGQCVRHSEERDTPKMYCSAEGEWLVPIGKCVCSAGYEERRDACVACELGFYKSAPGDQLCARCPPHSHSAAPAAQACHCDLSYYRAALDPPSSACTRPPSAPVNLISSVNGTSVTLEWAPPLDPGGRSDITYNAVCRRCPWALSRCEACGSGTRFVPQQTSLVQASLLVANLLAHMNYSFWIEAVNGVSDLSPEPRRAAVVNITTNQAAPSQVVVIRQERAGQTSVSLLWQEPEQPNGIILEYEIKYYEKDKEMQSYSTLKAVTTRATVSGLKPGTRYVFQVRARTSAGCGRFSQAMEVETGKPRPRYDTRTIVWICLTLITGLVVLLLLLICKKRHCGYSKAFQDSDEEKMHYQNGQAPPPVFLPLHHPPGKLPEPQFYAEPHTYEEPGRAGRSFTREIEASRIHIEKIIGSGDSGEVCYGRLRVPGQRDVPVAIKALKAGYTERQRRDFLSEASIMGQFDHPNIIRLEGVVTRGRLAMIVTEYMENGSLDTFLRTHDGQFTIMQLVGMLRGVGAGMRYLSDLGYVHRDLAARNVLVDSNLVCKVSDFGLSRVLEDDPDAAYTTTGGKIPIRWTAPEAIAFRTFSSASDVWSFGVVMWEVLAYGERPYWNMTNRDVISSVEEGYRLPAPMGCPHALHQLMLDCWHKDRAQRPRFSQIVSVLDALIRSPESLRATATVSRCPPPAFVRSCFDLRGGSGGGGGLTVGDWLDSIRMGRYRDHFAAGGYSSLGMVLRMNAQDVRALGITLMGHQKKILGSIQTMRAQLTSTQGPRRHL

[3] = target: Protein-tyrosine kinase 6 (Homo sapiens) (UniProt Q13882); assay: Inhibition of BRK (unknown origin) at 0.5 uM relative to control
[4] = target: T3, Tyrosine-protein kinase receptor TYRO3 (Homo sapiens) (UniProt Q06418); assay: Inhibition of TYRO3 (unknown origin) at 0.5 uM relative to control
T3 sequence (whole entry): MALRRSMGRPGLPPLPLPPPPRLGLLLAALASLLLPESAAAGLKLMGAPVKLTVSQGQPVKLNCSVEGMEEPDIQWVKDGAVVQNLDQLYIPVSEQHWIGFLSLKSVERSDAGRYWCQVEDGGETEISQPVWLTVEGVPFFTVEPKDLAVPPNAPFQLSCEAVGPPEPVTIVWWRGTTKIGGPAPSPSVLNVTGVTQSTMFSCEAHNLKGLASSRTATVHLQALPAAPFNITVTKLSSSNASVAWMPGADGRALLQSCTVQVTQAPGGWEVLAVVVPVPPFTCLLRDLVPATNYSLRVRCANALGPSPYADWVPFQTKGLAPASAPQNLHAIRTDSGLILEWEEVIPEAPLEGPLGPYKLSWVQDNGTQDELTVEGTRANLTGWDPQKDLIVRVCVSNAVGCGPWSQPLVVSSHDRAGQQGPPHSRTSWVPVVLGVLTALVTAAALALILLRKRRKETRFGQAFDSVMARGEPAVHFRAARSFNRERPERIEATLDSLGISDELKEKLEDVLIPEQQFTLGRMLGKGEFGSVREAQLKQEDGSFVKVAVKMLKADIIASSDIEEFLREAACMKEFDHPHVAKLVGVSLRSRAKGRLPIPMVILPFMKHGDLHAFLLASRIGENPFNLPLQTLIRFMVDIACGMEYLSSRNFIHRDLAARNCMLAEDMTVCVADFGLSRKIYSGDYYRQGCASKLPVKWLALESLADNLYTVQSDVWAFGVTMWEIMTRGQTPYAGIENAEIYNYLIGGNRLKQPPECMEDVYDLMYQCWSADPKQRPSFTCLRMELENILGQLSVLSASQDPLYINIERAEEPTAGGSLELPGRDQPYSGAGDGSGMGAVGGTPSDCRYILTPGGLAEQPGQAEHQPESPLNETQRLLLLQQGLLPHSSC

Protein-tyrosine kinase 6 (Homo sapiens), sequence (Q13882 whole entry, looked up): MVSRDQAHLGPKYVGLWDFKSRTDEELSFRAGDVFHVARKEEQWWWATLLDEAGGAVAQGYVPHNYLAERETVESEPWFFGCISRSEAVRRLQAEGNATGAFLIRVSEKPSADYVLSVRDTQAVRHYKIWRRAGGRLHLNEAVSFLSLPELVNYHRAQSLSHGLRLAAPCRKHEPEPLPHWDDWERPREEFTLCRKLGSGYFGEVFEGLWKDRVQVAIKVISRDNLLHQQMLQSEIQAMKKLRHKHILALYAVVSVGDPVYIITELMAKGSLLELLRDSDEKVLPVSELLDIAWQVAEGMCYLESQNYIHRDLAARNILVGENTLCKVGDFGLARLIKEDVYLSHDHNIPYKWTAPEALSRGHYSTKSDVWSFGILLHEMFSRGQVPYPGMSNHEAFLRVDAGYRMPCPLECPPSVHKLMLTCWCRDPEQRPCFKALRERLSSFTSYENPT

| SMILES | inhibition [1] | inhibition [2] | inhibition [3] | inhibition [4] |
| --- | --- | --- | --- | --- |
| CNC(=O)c1cc(Oc2ccc(NC(=O)c3nc(SC)[nH]c3-c3ccc(F)cc3)cc2)ccn1 | 97% | 96% | 90% | 87% |
| CSc1nc(C(=O)Nc2ccc(Oc3cc4cnn(C)c4cc3Br)cc2)c(-c2ccc(F)cc2)o1 | 48% | 25% |  |  |
| CNC(=O)c1cc(Oc2ccc(NC(=O)c3nc(NC)sc3-c3ccc(F)cc3)cc2)ccn1 | 54% | 58% | 53% | 59% |
| CNC(=O)c1cc(Oc2ccc(NC(=O)c3nc(SC)oc3-c3ccc(F)cc3)cc2)ccn1 | 58% |  | 80% | 82% |
| CNC(=O)c1cc(Oc2ccc(NC(=O)c3nc(C(F)(F)F)sc3-c3ccc(F)cc3)cc2)ccn1 |  | 50% | 87% | 65% |
| CNC(=O)c1cc(Oc2ccc(NC(=O)c3nc(S(C)(=O)=O)sc3-c3ccc(F)cc3)cc2)ccn1 | 61% |  | 34% | 70% |
| CNC(=O)c1cc(Oc2ccc(NC(=O)c3nc(SC)n(CCN(C)C)c3-c3ccc(F)cc3)cc2)ccn1 | 26% | 57% | 44% | 52% |
| CNC(=O)c1cc(Oc2ccc(NC(=O)c3nc(SC)oc3-c3ccc(F)cc3)cc2F)ccn1 | 47% | 42% | 77% | 70% |
| CNC(=O)c1cc(Oc2ccc(NC(=O)c3n[nH]nc3-c3ccc(F)cc3)cc2)ccn1 | 76% |  | 32% |  |
